# In article PMC5268438, “Crystal Structure and Functional Characterization of an Esterase (EaEST) from Exiguobacterium antarcticum” (PLoS ONE, 2017):
# How the values were obtained:
# [1] = target: T1, EaEST (Exiguobacterium antarcticum, UniProt A0ABF7PFX0); test: X-ray crystal structure, […] Å; assay type: binding; details: crystals from 0.2 M ammonium acetate, pH 7.5, no ligand added; active site, ligand assigned from electron density
# T1 construct: gene Eab7_1456; recombinant from pET-21a in E. coli BL21(DE3), purified on His-Trap Ni-NTA, no tag removal told; two protomers in the asymmetric unit (542 residues modelled); catalytic triad Ser96, Asp220, His248
# T1 sequence (A0ABF7PFX0 1-272): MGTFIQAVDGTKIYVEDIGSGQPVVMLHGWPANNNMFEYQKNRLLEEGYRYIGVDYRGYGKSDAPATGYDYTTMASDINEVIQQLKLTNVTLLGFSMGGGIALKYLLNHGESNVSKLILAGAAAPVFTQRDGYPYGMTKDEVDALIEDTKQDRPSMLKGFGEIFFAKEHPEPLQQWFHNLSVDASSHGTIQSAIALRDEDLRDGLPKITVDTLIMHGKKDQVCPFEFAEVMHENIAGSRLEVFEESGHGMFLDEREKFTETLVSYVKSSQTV
# [2] = target: esterase (EaEST) from Exiguobacterium antarcticum B7 (Exiguobacterium antarcticum B7); test: AUC; sedimentation velocity, 20°C, 2 mg/ml EaEST in 25 mM Tris-HCl pH 8.0, 200 mM NaCl, 5 mM MgCl2, 2 mM DTT; 45,000 rpm; c(s) with SEDFIT
Compound,"X-ray crystal structure, 1.90 Å [1]",stoichiometry N [2]
CC(=O)OO [peracetate],the peracetate molecule was perfectly fitted into the electron-density map,
esterase (EaEST) from Exiguobacterium antarcticum B7 (enzyme),,3
